Reference: patent EP0745599A2, “1-(3-Heterocyclylphenyl)-s-triazine-2,4,6-oxo or thiotrione herbicidal agents” (American Cyanamid Company, priority 1995, dated 1996)

Columns and labels:
Format in all cases: in vivo
Details in all cases: rated four to five weeks after treatment
IPOMOEA SPP. = assay: Preemergence herbicidal evaluation, IPOSS (Morningglory Spp.); design: key to IPOSS: visual rating scale 0-9 vs control
Description: (§1) Results of herbicide evaluation are expressed on a rating scale (0-9). The scale is based upon a visual observation of plant stand, vigor, malformation, size, chlorosis and overall plant appearance as compared with a control.
(§2) The preemergence herbicidal activity of the test compounds of the present invention is exemplified by the following tests in which the seeds of a variety of monocotyledonous and dicotyledonous plants are separately mixed with potting soil and planted on top of approximately one inch of soil in separate pint cups. After planting, the cups are sprayed with the selected aqueous acetone solution containing test compound in sufficient quantity to provide the equivalent of about 0.125 to 0.50 kg per hectare of test compound per cup. The treated cups are then placed on greenhouse benches, watered and cared for in accordance with conventional greenhouse procedures. From four to five weeks after treatment, the tests are terminated and each cup is examined and rated according to the rating system provided in Example 42.

[1] = test system: ECHINOCHLOA CRUS-GALLI, (L) BEAU; assay: Preemergence herbicidal evaluation, ECHCG (Barnyardgrass); design: key to ECHCG: visual rating scale 0-9 vs control
Description: as §1, §2

[2] = test system: ORYZA SATIVA, L. TEBONNET; assay: Preemergence herbicidal evaluation, ORYSAT (Rice, Tebonnet); design: key to ORYSAT: visual rating scale 0-9 vs control
Description: as §1, §2

[3] = test system: TRITICUM AESTIVUM, CV. APOLLO; assay: Preemergence herbicidal evaluation, TRZAWO (Wheat, Winter, CV. APOLLO); design: key to TRZAWO: visual rating scale 0-9 vs control
Description: as §1, §2

[4] = test system: ABUTILON THEOPHRASTI, MEDIC.; assay: Preemergence herbicidal evaluation, ABUTH (Velvetleaf); design: key to ABUTH: visual rating scale 0-9 vs control
Description: as §1, §2

[5] = test system: AMBROSIA ARTEMISIIFOLIA, L.; assay: Preemergence herbicidal evaluation, AMBEL (Ragweed, Common); design: key to AMBEL: visual rating scale 0-9 vs control
Description: as §1, §2

CASSIA OBTUSIFOLIA, L. = assay: Preemergence herbicidal evaluation, CASOB (Sicklepod); design: key to CASOB: visual rating scale 0-9 vs control
Description: as §1, §2

CHENOPODIUM ALBUM, L. = assay: Preemergence herbicidal evaluation, CHEAL (Lambsquarters, Common); design: key to CHEAL: visual rating scale 0-9 vs control
Description: as §1, §2

GALIUM APARINE = assay: Preemergence herbicidal evaluation, GALAP (Galium); design: key to GALAP: visual rating scale 0-9 vs control
Description: as §1, §2

[6] = test system: SETARIA VIRIDIS, (L) BEAU; assay: Preemergence herbicidal evaluation, SETVI (Foxtail, Green); design: key to SETVI: visual rating scale 0-9 vs control
Description: as §1, §2

[7] = test system: GLYCINE MAX(L)MERR. CV. WILLIAMS; assay: Preemergence herbicidal evaluation, GLXMAW (Soybean, Williams); design: key to GLXMAW: visual rating scale 0-9 vs control
Description: as §1, §2

ZEA MAYS L. = assay: Preemergence herbicidal evaluation, ZEAMX (Corn, Field); design: key to ZEAMX: visual rating scale 0-9 vs control
Description: as §1, §2

[8] = test system: ECHINOCHLOA CRUS-GALLI, (L) BEAU; assay: Postemergence herbicidal evaluation, ECHCG (Barnyardgrass)
Description: In the tests, seedling plants are grown in jiffy flats for about two weeks. The test compounds are dispersed in 50/50 acetone/water mixtures containing 0.5% TWEEN®20, a polyoxyethylene sorbitan monolaurate surfactant of Atlas Chemical Industries, in sufficient quantities to provide the equivalent of about 0.125 kg to 0.500 kg per hectare of active compound when applied to the plants through a spray nozzle operating at 40 psi for a predetermined time. After spraying, the plants are placed on greenhouse benches and are cared for in the usual manner, commensurate with conventional greenhouse practices. From four to five weeks after treatment, the seedling plants are examined and rated according to the rating system set forth below. Where more than one test is involved for a given compound, the data are averaged.
as §1

COC(=O)Cn1c(=O)n(C)c(=O)n(-c2cc(N3C(=O)C4=C(CCCC4)C3=O)c(Cl)cc2Cl)c1=O [Compound 6, Methyl 3-[2,4-dichloro-5-(1-cyclohexene-1,2-dicarboximido)phenyl]tetrahydro-5-methyl-2,4,6-trioxo-s-triazine-1(2H)-acetate]
4.0: Herbicide rating (0-9) IPOSS (IPOMOEA SPP.; 0.125 kg/ha) | Herbicide rating (0-9) IPOSS (IPOMOEA SPP.; 0.250 kg/ha) | Herbicide rating (0-9) IPOSS (IPOMOEA SPP.; 0.500 kg/ha) | Herbicide rating (0-9) ORYSAT ([2]; 0.125 kg/ha) | Herbicide rating (0-9) ORYSAT ([2]; 0.250 kg/ha) | Herbicide rating (0-9) ORYSAT ([2]; 0.500 kg/ha)
0.0: Herbicide rating (0-9) ECHCG ([1]; 0.125 kg/ha) | Herbicide rating (0-9) ECHCG ([1]; 0.250 kg/ha) | Herbicide rating (0-9) ECHCG ([1]; 0.500 kg/ha)
2.0: Herbicide rating (0-9) TRZAWO ([3]; 0.125 kg/ha) | Herbicide rating (0-9) TRZAWO ([3]; 0.250 kg/ha) | Herbicide rating (0-9) TRZAWO ([3]; 0.500 kg/ha)

C=CCn1c(=O)[nH]c(=O)n(-c2cc(N3C(=O)C4=C(CCCC4)C3=O)c(F)cc2Cl)c1=O [Compound 18, N-[5-(3-Allylhexahydro-2,4,6-trioxo-s-triazin-1-yl)-4-chloro-2-fluorophenyl]-1-cyclohexene-1,2-dicarboximide]
4.0: IPOSS (IPOMOEA SPP.; Rate 0.500 kg/ha) | GALAP (GALIUM APARINE; Rate 0.500 kg/ha)
7.0: CHEAL (CHENOPODIUM ALBUM, L.; Rate 0.500 kg/ha)
0.0: ABUTH ([4]; Rate 0.125 kg/ha) | ABUTH ([4]; Rate 0.250 kg/ha) | ABUTH ([4]; Rate 0.500 kg/ha) | AMBEL ([5]; Rate 0.125 kg/ha) | AMBEL ([5]; Rate 0.250 kg/ha) | AMBEL ([5]; Rate 0.500 kg/ha) | CASOB (CASSIA OBTUSIFOLIA, L.; Rate 0.125 kg/ha) | CASOB (CASSIA OBTUSIFOLIA, L.; Rate 0.250 kg/ha) | CASOB (CASSIA OBTUSIFOLIA, L.; Rate 0.500 kg/ha) | CHEAL (CHENOPODIUM ALBUM, L.; Rate 0.125 kg/ha) | IPOSS (IPOMOEA SPP.; Rate 0.125 kg/ha) | IPOSS (IPOMOEA SPP.; Rate 0.250 kg/ha) | GALAP (GALIUM APARINE; Rate 0.125 kg/ha) | GALAP (GALIUM APARINE; Rate 0.250 kg/ha) | ECHCG ([1]; Rate 0.125 kg/ha) | ECHCG ([1]; Rate 0.250 kg/ha) | ECHCG ([1]; Rate 0.500 kg/ha) | SETVI ([6]; Rate 0.125 kg/ha) | SETVI ([6]; Rate 0.250 kg/ha) | SETVI ([6]; Rate 0.500 kg/ha) | GLXMAW ([7]; Rate 0.125 kg/ha) | GLXMAW ([7]; Rate 0.250 kg/ha) | GLXMAW ([7]; Rate 0.500 kg/ha) | ORYSAT ([2]; Rate 0.125 kg/ha) | ORYSAT ([2]; Rate 0.250 kg/ha) | ORYSAT ([2]; Rate 0.500 kg/ha) | TRZAWO ([3]; Rate 0.125 kg/ha) | TRZAWO ([3]; Rate 0.250 kg/ha) | TRZAWO ([3]; Rate 0.500 kg/ha) | ZEAMX (ZEA MAYS L.; Rate 0.125 kg/ha) | ZEAMX (ZEA MAYS L.; Rate 0.250 kg/ha) | ZEAMX (ZEA MAYS L.; Rate 0.500 kg/ha)
5.0: CHEAL (CHENOPODIUM ALBUM, L.; Rate 0.250 kg/ha)

Cn1c(=O)n(CC(=O)OC(C)(C)C)c(=O)n(-c2cc(N3C(=O)C4=C(CCCC4)C3=O)c(Cl)cc2Cl)c1=O [Compound 7, Tert-butyl 3-[2,4-dichloro-5-(1-cyclohexene-1,2-dicarboximido)phenyl]tetrahydro-5-methyl-2,4,6-trioxo-s-triazine-1(2H)-acetate]
0.0: Herbicide rating (0-9) AMBEL ([5]; 0.125 kg/ha) | Herbicide rating (0-9) AMBEL ([5]; 0.250 kg/ha) | Herbicide rating (0-9) CASOB (CASSIA OBTUSIFOLIA, L.; 0.125 kg/ha) | Herbicide rating (0-9) CASOB (CASSIA OBTUSIFOLIA, L.; 0.250 kg/ha) | Herbicide rating (0-9) CASOB (CASSIA OBTUSIFOLIA, L.; 0.500 kg/ha) | Herbicide rating (0-9) IPOSS (IPOMOEA SPP.; 0.125 kg/ha) | Herbicide rating (0-9) IPOSS (IPOMOEA SPP.; 0.250 kg/ha) | Herbicide rating (0-9) IPOSS (IPOMOEA SPP.; 0.500 kg/ha) | Herbicide rating (0-9) ECHCG ([1]; 0.125 kg/ha) | Herbicide rating (0-9) ECHCG ([1]; 0.250 kg/ha) | Herbicide rating (0-9) ECHCG ([1]; 0.500 kg/ha) | Herbicide rating (0-9) SETVI ([6]; 0.125 kg/ha) | Herbicide rating (0-9) SETVI ([6]; 0.250 kg/ha) | Herbicide rating (0-9) SETVI ([6]; 0.500 kg/ha) | Herbicide rating (0-9) GLXMAW ([7]; 0.125 kg/ha) | Herbicide rating (0-9) GLXMAW ([7]; 0.250 kg/ha) | Herbicide rating (0-9) GLXMAW ([7]; 0.500 kg/ha) | Herbicide rating (0-9) ZEAMX (ZEA MAYS L.; 0.125 kg/ha) | Herbicide rating (0-9) ZEAMX (ZEA MAYS L.; 0.250 kg/ha) | Herbicide rating (0-9) ZEAMX (ZEA MAYS L.; 0.500 kg/ha)

C=CCn1c(=O)n(C)c(=O)n(-c2cc(N3C(=O)C4=C(CCCC4)C3=O)c(F)cc2Cl)c1=O [Compound 17, N-[5-(3-Allylhexahydro-5-methyl-2,4,6-trioxo-s-triazin-1-yl)-4-chloro-2-fluoro-phenyl]-1-cyclohexene-1,2-dicarboximide]
3.0: ABUTH ([4]; Rate 0.250 kg/ha) | SETVI ([6]; Rate 0.500 kg/ha) | ZEAMX (ZEA MAYS L.; Rate 0.500 kg/ha)
2.0: AMBEL ([5]; Rate 0.500 kg/ha) | ORYSAT ([2]; Rate 0.500 kg/ha)
7.0: GALAP (GALIUM APARINE; Rate 0.250 kg/ha)
6.0: CHEAL (CHENOPODIUM ALBUM, L.; Rate 0.125 kg/ha)
0.0: Herbicide rating (0-9) ECHCG ([8]; 0.125 kg/ha) | Herbicide rating (0-9) ECHCG ([8]; 0.250 kg/ha) | Herbicide rating (0-9) ECHCG ([8]; 0.500 kg/ha) | ABUTH ([4]; Rate 0.125 kg/ha) | AMBEL ([5]; Rate 0.125 kg/ha) | AMBEL ([5]; Rate 0.250 kg/ha) | CASOB (CASSIA OBTUSIFOLIA, L.; Rate 0.125 kg/ha) | CASOB (CASSIA OBTUSIFOLIA, L.; Rate 0.250 kg/ha) | CASOB (CASSIA OBTUSIFOLIA, L.; Rate 0.500 kg/ha) | IPOSS (IPOMOEA SPP.; Rate 0.125 kg/ha) | IPOSS (IPOMOEA SPP.; Rate 0.250 kg/ha) | IPOSS (IPOMOEA SPP.; Rate 0.500 kg/ha) | GALAP (GALIUM APARINE; Rate 0.125 kg/ha) | ECHCG ([1]; Rate 0.125 kg/ha) | ECHCG ([1]; Rate 0.250 kg/ha) | ECHCG ([1]; Rate 0.500 kg/ha) | SETVI ([6]; Rate 0.125 kg/ha) | SETVI ([6]; Rate 0.250 kg/ha) | GLXMAW ([7]; Rate 0.125 kg/ha) | GLXMAW ([7]; Rate 0.250 kg/ha) | GLXMAW ([7]; Rate 0.500 kg/ha) | ORYSAT ([2]; Rate 0.125 kg/ha) | ORYSAT ([2]; Rate 0.250 kg/ha) | TRZAWO ([3]; Rate 0.125 kg/ha) | TRZAWO ([3]; Rate 0.250 kg/ha) | TRZAWO ([3]; Rate 0.500 kg/ha) | ZEAMX (ZEA MAYS L.; Rate 0.125 kg/ha) | ZEAMX (ZEA MAYS L.; Rate 0.250 kg/ha)
4.0: GALAP (GALIUM APARINE; Rate 0.500 kg/ha)
9.0: ABUTH ([4]; Rate 0.500 kg/ha) | CHEAL (CHENOPODIUM ALBUM, L.; Rate 0.250 kg/ha) | CHEAL (CHENOPODIUM ALBUM, L.; Rate 0.500 kg/ha)
